From article PMC7614388, “Diversification in the inositol tris/tetrakisphosphate kinase (ITPK) family: crystal structure and enzymology of the outlier AtITPK4” (Biochemical Journal, 2023)

Assays:
AtITPK4 = target: T1, AtITPK4 (Arabidopsis thaliana, UniProt O80568); experiment: HPLC kinase assay, substrate inhibition fit; format: biochemical; conditions: 1 mM Ins(1,4,6)P3; ATP 0-5 mM; 6 mM MgCl2; 20 mM HEPES pH 7.3; 25 °C; 3 µM enzyme; substrate inhibition at high ATP
T1 construct: gene ITPK4; full-length; pOPINE, non-cleavable C-terminal 6xHis tag kept; Ni-NTA purified; HAD-like domain 1-150, ATP-grasp kinase domain from 151; no evidence of homo-oligomers

AtITPK1 = target: T2, AtITPK1 (Arabidopsis thaliana, UniProt Q9SBA5); experiment: phosphate release assay; format: biochemical; conditions: 1 mM ATP; 10 µM enzyme; no inositol phosphate
T2 construct: gene ITPK1; His tag with 3C cleavage implied
T2 sequence (Q9SBA5 1-319): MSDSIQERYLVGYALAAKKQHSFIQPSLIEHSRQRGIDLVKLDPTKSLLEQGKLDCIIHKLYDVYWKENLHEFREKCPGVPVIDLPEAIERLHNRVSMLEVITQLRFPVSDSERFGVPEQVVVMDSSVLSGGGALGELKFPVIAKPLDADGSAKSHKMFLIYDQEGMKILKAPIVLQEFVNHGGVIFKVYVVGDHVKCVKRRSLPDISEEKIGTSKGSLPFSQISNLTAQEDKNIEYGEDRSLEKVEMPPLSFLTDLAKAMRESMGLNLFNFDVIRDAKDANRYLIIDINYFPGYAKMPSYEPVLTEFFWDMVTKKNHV

T1 sequence (O80568 whole entry, the tested form may be a part): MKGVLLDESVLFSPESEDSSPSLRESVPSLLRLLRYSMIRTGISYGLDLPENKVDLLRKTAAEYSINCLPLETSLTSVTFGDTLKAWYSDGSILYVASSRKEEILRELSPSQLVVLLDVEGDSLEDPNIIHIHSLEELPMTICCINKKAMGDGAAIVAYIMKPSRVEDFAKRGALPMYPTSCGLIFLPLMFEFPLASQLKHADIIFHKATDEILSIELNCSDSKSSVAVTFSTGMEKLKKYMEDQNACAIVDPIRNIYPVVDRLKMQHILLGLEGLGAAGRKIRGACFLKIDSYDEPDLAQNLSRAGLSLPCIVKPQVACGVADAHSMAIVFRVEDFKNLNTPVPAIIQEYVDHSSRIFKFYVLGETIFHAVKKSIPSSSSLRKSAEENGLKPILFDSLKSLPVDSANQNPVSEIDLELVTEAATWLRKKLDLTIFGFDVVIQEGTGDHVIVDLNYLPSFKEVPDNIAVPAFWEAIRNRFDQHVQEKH

Nc1ncnc2c1ncn2[C@@H]1O[C@H](COP(=O)(O)OP(=O)(O)OP(=O)(O)O)[C@@H](O)[C@H]1O [ATP]
Ki (AtITPK4): 3.3 mM | phosphate release assay (AtITPK1): AtITPK1 showed much greater phosphate release from ATP in the absence of inositol phosphate substrate
